Reference: patent US20110275559A1, “Long-Acting Y2 and/or Y4 Receptor Agonists” (Novo Nordisk A/S, priority 2008, published 2011)
*1 amine or outer side, *2 acyl side, *3 side chain or, on linkers, in order; H or OH if unused. Where a SMILES comes first, the peptide text is derived from it. Side-chain parts run from the residue outwards. The star is where a group is joined. C20 diacid = O=C(O)CCCCCCCCCCCCCCCCCCC(=O)*; C18 diacid = O=C(O)CCCCCCCCCCCCCCCCC(=O)*; γGlu = O=C(O)[C@H](CCC(=O)[*:2])N[*:1]; Trx = NC[C@H]1CC[C@H](C(=O)O)CC1; AEEA = NCCOCCOCC(=O)O

Legend:
[1] = biological target: T1, Y2 receptor (Homo sapiens, UniProt P49146); test: Y2 receptor ACTOne based FLIPR assay (cAMP biosensor); type: cell-based; details: Table 2, PP analogues; ACTOne HEK-293 cells; read-out: Y2 cAMP EC50
T1 construct: host or cells: ACTOne HEK-293 cells
T1 sequence (P49146 1-381): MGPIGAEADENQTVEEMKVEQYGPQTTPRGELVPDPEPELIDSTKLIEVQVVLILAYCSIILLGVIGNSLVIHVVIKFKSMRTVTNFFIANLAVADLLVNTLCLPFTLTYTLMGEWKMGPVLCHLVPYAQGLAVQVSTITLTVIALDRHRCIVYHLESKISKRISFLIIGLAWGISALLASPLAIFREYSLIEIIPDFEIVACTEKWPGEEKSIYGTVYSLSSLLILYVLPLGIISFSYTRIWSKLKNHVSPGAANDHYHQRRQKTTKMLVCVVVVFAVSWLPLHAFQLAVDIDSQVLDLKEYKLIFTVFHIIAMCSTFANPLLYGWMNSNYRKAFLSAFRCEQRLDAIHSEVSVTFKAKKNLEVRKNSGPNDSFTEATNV
From the text: ACTOne™ is an easily scaleable cAMP biosensor HTS platform for measurement of Gs and Gi coupled 7™ receptor signalling from BD Biosciences (San Jose, Calif.). The cells express a biosensor developed around a modified rat olfactory cyclic nucleotide gated (CNG) calcium channel—a fairly non-discriminatory ion channel that responds to cAMP and cGMP. The CNG has been engineered to be cAMP selective and thus function as a cAMP responsive biosensor that signals through calcium or membrane potential responsive dyes. Y2 or Y4 receptor expressing ACTOne HEK-293 cells are obtained from BD Biosciences. The cells are loaded with a calcium responsive dye that only distributes in the cytoplasm. Probenecid, an inhibitor of the organic anion transporter is added to prevent the dye from leaving the cell. A phosphodiesterase inhibitor is added to prevent formatted cAMP from being degraded. Isoproterenol (an β1/β2 agonist) is added to activate the adenylate cyclase. When an Y2 or Y4 receptor agonist is added, the adenylate cyclase is inactivated. The decreased calcium concentration in the cytoplasm is then detected as an increase in fluorescence. Together with the test substance, Isoproterenol at a concentration matching EC80, is added to all wells. • The cells are plated out in Greiner 384-well plates. […] The plates are covered with tinfoil to avoid light (the dye can be excited by the daylight, which results in higher baseline and variation). • The FLIPR (FLIPRtetra from Molecular Devices, CA, USA) adds 1 μl sample and 1 μl isoproterenol (0.05 μM final concentration) at the same time. • The fluorescence signal from the wells is measured 330 seconds after sample addition on the FLIPR.

[2] = in vivo; details: Göttingen, minipig, iv
Description: (§1) The mini-pigs had two central venous catheters inserted which were used for intra venous (i.v.) dosing and bloodsampling. Compound was dissolved in 50 mM K2HPO4, 0.05% tween 80, pH=8.0 to a concentration of 180 nmol/ml. The pigs were dosed with 6 nmol compound/kg body weight. […] The blood samples were collected into test tubes containing EDTA buffer for stabilization and kept on ice for max. 20 minutes before centrifugation. The centrifugation procedure to separate plasma was; 4° C., 3000 rpm for 10 minutes. Plasma were collected and immediately transferred to Micronic tubes stored at −20° C. until assayed.
An additional mini-pig PK assay was used for measuring PK of the compounds of the invention. […] The animals had two central venous catheters inserted which were used for intra venous (i.v.) dosing and blood sampling. Compounds were dissolved in 10 mM Na2HPO4, 150 mM NaCl, 0.01% tween 80, pH=4.0 to concentrations in the range of 40 nmol/ml to 200 nmol/ml. The mini-pigs were dosed i.v. with 10 nmol compound/kg body weight, occasionally other doses such as 4 nmol/kg, 30 nmol/kg or 50 nmol/kg were administered. Each compound was dosed to 3 or 4 mini-pigs, and two compounds may be given simultaneously to the same animal. Blood were sampled pre-dose and 12 times during the first 10 hours post-dose. Blood were furthermore sampled once daily until 13 days post dosing. The blood samples were collected into test tubes containing EDTA buffer, trasylol and Val-Pyr for stabilization and kept on ice for max. 20 minutes. Samples were centrifuged at 4° C., 2000G for 10 minutes to separate plasma. Plasma were collected and immediately transferred to Micronic tubes stored at −20° C. until assayed.
Plasma samples were analysed by LC-MS on an LTQ-Orbitrap (ThermoFisher Scientific, Bremen) to which Accela HPLC pumps and an autosampler were connected (both from ThermoFisher). […] HPLC was performed on a Jupiter Proteo column (4μ) 90A (50×2.0 mm ID). […] The flow rate was 0.3 ml/min. For analysis of plasma samples, 30 μl plasma was precipitated with 90 μl ethanol. […] The heptane phase was removed after 5 min and the remaining solution was analysed by LC-MS as described above. For construction of plasma standards, compound was spiked to plasma (minipig) at the following concentrations: 1 nM, 2 nM, 5 nM, 10 nM, 20 nM, 50 nM, 100 nM, 200 nM. The plasma standards were treated as the samples. The lower limit of quantification was estimated to 2 nM.
Non-compartmental analysis (NCA): Plasma concentration-time profiles were analyzed by non-compartmental pharmacokinetics analysis (NCA) using WinNonlin Professional 5.0 (Pharsight Inc., Mountain View, Calif., USA). NCA was performed using the individual plasma concentration-time profiles from each animal.
For determination of plasma concentration of the PYY and PP peptide derivative or analogues thereof the following Methods 1-4 were used.
as §1, with “bloodsampling. The compound” for “bloodsampling. Compound”, “to an appropriate” for “to a”, “concentration (e.g. 25-500 nmol/mL).” for “concentration of 180 nmol/ml.”, “dosed intravenously (i.v.) or subcutaneously (s.c.)” for “dosed”, “with between 1 and 30” for “with 6”, “buffer (with Aprotinin 15000 KIE/mL and Val-Pyr 0.30 mM)” for “buffer”
An additional mini-pig PK assay was used for measuring PK of the compounds of the invention. […] The animals had two central venous catheters inserted which were used for intra venous (i.v.) dosing and blood sampling.

Row | EC50 [1] | half-life ([2]; 12 nmol/kg) | half-life ([2]; 13.5 nmol/kg) | half-life ([2]; 4 nmol/kg) | Structure (SMILES)
1 | > 1 µM | 46 h | – | – | CC[C@H](C)[C@H](NC(=O)[C@H](Cc1ccc(O)cc1)NC(=O)[C@H](CCCNC(=N)N)NC(=O)[C@H](CCCNC(=N)N)NC(=O)[C@H](CC(C)C)NC(=O)[C@H](CC(=O)O)NC(=O)[C@H](C)NC(=O)[C@H](C)NC(=O)[C@H](Cc1ccc(O)cc1)NC(=O)[C@H](CCC(N)=O)NC(=O)[C@H](CCCCNC(=O)COCCOCCNC(=O)COCCOCCNC(=O)CC[C@H](NC(=O)CCCCCCCCCCCCCCCCC(=O)O)C(=O)O)NC(=O)[C@H](CC(C)C)NC(=O)[C@H](CCC(N)=O)NC(=O)[C@H](CCC(=O)O)NC(=O)[C@@H]1CCCN1C(=O)[C@@H](NC(=O)[C@H](C)NC(=O)[C@H](CC(N)=O)NC(=O)[C@H](CC(=O)O)NC(=O)CNC(=O)[C@@H]1CCCN1C(=O)[C@H](Cc1ccc(O)cc1)NC(=O)[C@@H](NC(=O)[C@@H]1CCCN1C(=O)[C@H](CCC(=O)O)NC(=O)[C@H](CC(C)C)NC(=O)[C@@H]1CCCN1)C(C)C)[C@@H](C)O)C(=O)N[C@@H](CC(N)=O)C(=O)N[C@@H](CC(C)C)C(=O)N[C@@H](CC(C)C)C(=O)N[C@H](C(=O)N[C@@H](CCCNC(=N)N)C(=O)N1CCC[C@H]1C(=O)N[C@@H](CCCNC(=N)N)C(=O)N[C@@H](Cc1ccc(O)cc1)C(N)=O)[C@@H](C)O [SEQ ID NO: 32, N-epsilon18-[2-(2-{2-[2-(2-{2-[(S)-4-Carboxy-4-(17-carboxyheptadecanoylamino)butyrylamino]ethoxy}ethoxy)acetylamino]-ethoxy}ethoxy)acetyl][Lys18,Leu17,Leu30]hPP2-36] (H-PLEPVYPGDNATPEQLK([AEEA-AEEA-γGlu-C18 diacid])QYAADLRRYINLLTRPRY-NH2; N-terminus and C-terminus assumed)
2 | > 1 µM | – | 55 h | – | CC[C@H](C)[C@H](NC(=O)[C@H](Cc1ccc(O)cc1)NC(=O)[C@H](CCCNC(=N)N)NC(=O)[C@H](CCCNC(=N)N)NC(=O)[C@H](CC(C)C)NC(=O)[C@H](CC(=O)O)NC(=O)[C@H](C)NC(=O)[C@H](C)NC(=O)[C@H](Cc1ccc(O)cc1)NC(=O)[C@H](CCC(N)=O)NC(=O)[C@H](CCCCNC(=O)COCCOCCNC(=O)COCCOCCNC(=O)CC[C@H](NC(=O)[C@H]1CC[C@H](CNC(=O)CCCCCCCCCCCCCCCCCCC(=O)O)CC1)C(=O)O)NC(=O)[C@H](CC(C)C)NC(=O)[C@H](CCC(N)=O)NC(=O)[C@H](CCC(=O)O)NC(=O)[C@@H]1CCCN1C(=O)[C@@H](NC(=O)[C@H](C)NC(=O)[C@H](CC(N)=O)NC(=O)[C@H](CC(=O)O)NC(=O)CNC(=O)[C@@H]1CCCN1C(=O)[C@H](Cc1ccc(O)cc1)NC(=O)[C@@H](NC(=O)[C@@H]1CCCN1C(=O)[C@H](CCC(=O)O)NC(=O)[C@H](CC(C)C)NC(=O)[C@@H]1CCCN1)C(C)C)[C@@H](C)O)C(=O)N[C@@H](CC(N)=O)C(=O)N[C@@H](CC(C)C)C(=O)N[C@@H](CC(C)C)C(=O)N[C@H](C(=O)N[C@@H](CCCNC(=N)N)C(=O)N1CCC[C@H]1C(=O)N[C@@H](CCCNC(=N)N)C(=O)N[C@@H](Cc1ccc(O)cc1)C(N)=O)[C@@H](C)O [SEQ ID NO: 43, N-epsilon18-[2-(2-{2-[2-(2-{2-[(S)-4-Carboxy-4-({trans-4-[(19-carboxynonadecanoylamino)methyl]cyclohexanecarbonyl}amino)butyrylamino]-ethoxy}ethoxy)acetylamino]ethoxy}ethoxy)acetyl][Leu17,Lys18,Leu30]hPP2-36] (H-PLEPVYPGDNATPEQLK([AEEA-AEEA-γGlu-Trx-C20 diacid])QYAADLRRYINLLTRPRY-NH2; N-terminus and C-terminus assumed)
3 | > 1 µM | – | – | 62 h | CC[C@H](C)[C@H](NC(=O)[C@H](Cc1ccc(O)cc1)NC(=O)[C@H](CCCCNC(=O)COCCOCCNC(=O)COCCOCCNC(=O)CC[C@H](NC(=O)CCCCCCCCCCCCCCCCC(=O)O)C(=O)O)NC(=O)[C@H](CCCNC(=N)N)NC(=O)[C@H](CC(C)C)NC(=O)[C@H](CC(=O)O)NC(=O)[C@H](C)NC(=O)[C@H](C)NC(=O)[C@H](Cc1ccc(O)cc1)NC(=O)[C@H](CCC(N)=O)NC(=O)[C@H](C)NC(=O)[C@H](CC(C)C)NC(=O)[C@H](CCC(N)=O)NC(=O)[C@H](CCC(=O)O)NC(=O)[C@@H]1CCCN1C(=O)[C@@H](NC(=O)[C@H](C)NC(=O)[C@H](CC(N)=O)NC(=O)[C@H](CC(=O)O)NC(=O)CNC(=O)[C@@H]1CCCN1C(=O)[C@H](Cc1ccc(O)cc1)NC(=O)[C@@H](NC(=O)[C@@H]1CCCN1C(=O)[C@H](CCC(=O)O)NC(=O)[C@H](CC(C)C)NC(=O)[C@@H]1CCCN1)C(C)C)[C@@H](C)O)C(=O)N[C@@H](CC(N)=O)C(=O)N[C@@H](CC(C)C)C(=O)N[C@@H](CC(C)C)C(=O)N[C@H](C(=O)N[C@@H](CCCNC(=N)N)C(=O)N1CCC[C@H]1C(=O)N[C@@H](CCCNC(=N)N)C(=O)N[C@@H](Cc1ccc(O)cc1)C(N)=O)[C@@H](C)O [SEQ ID NO: 46, N-epsilon26-[2-(2-{2-[2-(2-{2-[(S)-4-Carboxy-4-(17-carboxyheptadecanoylamino)butyrylamino]ethoxy}ethoxy)acetylamino]-ethoxy}ethoxy)acetyl][Leu17,Lys26,Leu30]hPP2-36] (H-PLEPVYPGDNATPEQLAQYAADLRK([AEEA-AEEA-γGlu-C18 diacid])YINLLTRPRY-NH2; N-terminus and C-terminus assumed)
